Experimental data from US20230157998A1, “Methods of Inhibiting SARS-CoV-2 Replication and Treating Corona Virus Disease 2019” (Pfizer Inc., priority 2020, published 2023).
Converted amounts (≈) assume the structure as drawn. “And” between values parts separate entries of the source, which are not always exact repeats. Equal entries are not always repeated. Where two headings read alike, the source gives them in different places.

Assays:
NL63-CoV 3CLpro = NL63-CoV 3CLpro (Human coronavirus NL63, UniProt P0C6X5); assay: FRET protease activity assay; format: biochemical; settings: Alpha-CoV; [E]T 170 ± 4 nM
Sequence of NL63-CoV 3CLpro (P0C6X5 2940-3242): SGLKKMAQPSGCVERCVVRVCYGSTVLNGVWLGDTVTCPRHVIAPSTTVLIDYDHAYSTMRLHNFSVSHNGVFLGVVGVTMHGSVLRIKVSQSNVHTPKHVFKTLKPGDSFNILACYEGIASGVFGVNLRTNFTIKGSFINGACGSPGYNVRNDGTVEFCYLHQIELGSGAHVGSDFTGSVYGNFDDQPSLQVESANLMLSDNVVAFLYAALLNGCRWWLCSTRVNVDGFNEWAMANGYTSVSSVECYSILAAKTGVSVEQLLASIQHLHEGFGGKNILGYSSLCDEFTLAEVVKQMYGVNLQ

HKU1-CoV 3CLpro = HKU1-CoV 3CLpro (Human coronavirus HKU1, UniProt P0C6X2); assay: FRET protease activity assay; format: biochemical; settings: Beta-CoV; [E]T 57 ± 1 nM
Sequence of HKU1-CoV 3CLpro (P0C6X2 3335-3637): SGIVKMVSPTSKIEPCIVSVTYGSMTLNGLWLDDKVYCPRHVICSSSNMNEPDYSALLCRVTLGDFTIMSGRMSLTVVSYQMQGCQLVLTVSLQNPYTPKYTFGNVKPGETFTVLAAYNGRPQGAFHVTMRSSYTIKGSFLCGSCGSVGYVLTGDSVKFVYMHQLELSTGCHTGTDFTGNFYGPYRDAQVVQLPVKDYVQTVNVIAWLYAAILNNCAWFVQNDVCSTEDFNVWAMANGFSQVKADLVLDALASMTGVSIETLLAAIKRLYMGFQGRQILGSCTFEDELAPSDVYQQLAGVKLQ

Human Elastase = Human Elastase (Homo sapiens, UniProt P08246); assay: Protease panel; format: biochemical
Sequence of Human Elastase (P08246 30-247): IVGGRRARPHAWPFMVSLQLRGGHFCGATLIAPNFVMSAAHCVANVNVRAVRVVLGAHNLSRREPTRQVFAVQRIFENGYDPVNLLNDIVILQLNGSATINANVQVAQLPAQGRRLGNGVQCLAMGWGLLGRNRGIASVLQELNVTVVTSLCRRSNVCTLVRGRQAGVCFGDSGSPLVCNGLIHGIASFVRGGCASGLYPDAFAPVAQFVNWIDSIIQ

[1] = tested on: SARS-CoV-2 Washington strain 1; assay: Cytopathic effect (CPE) assay in VeroE6-enACE2 cells; format: cell-based
SARS-CoV-2 = assay: Antiviral activity in HeLa-ACE2 cells (viral protein detection); format: cell-based; settings: Severe acute respiratory syndrome coronavirus 2, compound alone
SARS-CoV-2 USA-WA1/2020 [2] = assay: In vitro drug efficacy in A549+ACE2 cells; format: cell-based
SARS-CoV-2 USA-WA1/2020 [3] = assay: microbe, parasite or virus in culture; format: cell-based
[4] = Ethanol […] v/v, 2 mg/mL at preparation
[5] = ~1 mg/mL, 5% v/v co-solvent, pH 4 or 5, with or without 15 mg/mL SBE-β-CD, up to 7 days, all samples
CYP3A4/5 = settings: microsomes
physchem [6] = settings: 25 °C, organic solvent or mixture, thermodynamic from solid
physchem [7] = settings: 25 °C, aqueous with cosolvent or surfactant or cyclodextrin, thermodynamic from solid
physchem [8] = settings: organic solvent or mixture, thermodynamic from solid
in vitro = settings: human
[9] = Cytotoxicity in MRC-5 cells; settings: human
MRC-5 cells = assay: Cytotoxicity in MRC-5 cells; settings: read-out: CC50 μM GeoMean; MRC-5, Efflux Inhibitor 0.5 μM
[10] = Intravenous pharmacokinetics; settings: rat, dog, monkey, in vivo, 2 mg/kg
[11] = Admixture physical stability in 0.9% w/v sodium chloride; settings: 25° C.
[12] = Saturated solubility in co-solvent/co-solvent/water mixtures (F3); settings: 25 °C, pH 5, aqueous buffer, thermodynamic from solid, PF-00835321 Saturated Solubility, pH 5, 5 mM citrate, PEG400 0.75, Ethanol […] v/v
[13] = Saturated solubility in CD/water mixtures with polymeric excipients (F6); settings: 25° C., pH 5, HP-β-CD 15 mg/mL
[14] = 2.5x dilution in 0.9% w/v sodium chloride
[15] = 10x dilution in 0.9% w/v sodium chloride

Compound: COc1cccc2[nH]c(C(=O)N[C@@H](CC(C)C)C(=O)N[C@@H](C[C@@H]3CCNC3=O)C(=O)CO)cc12 [PF-00835231]
- Ki (NL63-CoV 3CLpro): 0.8 ± 0.5 nM
- Ki (HKU1-CoV 3CLpro): 0.9 ± 0.2 nM
- IC50 (Human Elastase): > 33300 nM
- EC50 ([1]; Severe acute respiratory syndrome coronavirus 2, VeroE6-enACE2 cells, in the presence of the P-gp inhibitor, quoted for the EC50/EC90 difference, read-out: EC50): 0.48 µM
- EC90 ([1]; Severe acute respiratory syndrome coronavirus 2, Vero-cell lines, P-gp inhibitor added): 480 to 1600 nM
- difference between EC50 and EC90 ([1]; both Vero cell types): 2-3 fold
- EC50 ([1]; read-out: EC50 μM GeoMean): 0.23 µM
- EC50 (SARS-CoV-2): 140 nM and 144 nM
- EC90 (SARS-CoV-2): 400 nM and 398 nM
- EC50 (SARS-CoV-2 USA-WA1/2020 [2]; Severe acute respiratory syndrome coronavirus 2, A549-ACE2, 24 h): 221 nM
- EC90 (SARS-CoV-2 USA-WA1/2020 [2]; Severe acute respiratory syndrome coronavirus 2, A549-ACE2, 24 h, read-out: EC90): 734 nM
- EC50 (SARS-CoV-2 USA-WA1/2020 [2]; Severe acute respiratory syndrome coronavirus 2, A549-ACE2, 48 h): 158 nM
- EC90 (SARS-CoV-2 USA-WA1/2020 [2]; Severe acute respiratory syndrome coronavirus 2, A549-ACE2, 48 h, read-out: EC90): 439 nM
- EC90 (SARS-CoV-2 USA-WA1/2020 [2]; Severe acute respiratory syndrome coronavirus 2, A549-ACE2, dose response assay in human lung carcinoma cells, read-out: average EC90): 440 nM
- SARS-CoV-2 viral infectious titers in apical washes (SARS-CoV-2 USA-WA1/2020 [3]; 10 μM doses): viral titers below the limit of 366 detection at most time points
- SARS-CoV-2 viral infectious titers in apical washes (SARS-CoV-2 USA-WA1/2020 [3]; 0.025, 0.5 or 10 μM in basolateral chamber, washes at 12-hour increments): potently inhibit SARS-CoV-2 titers in a dose-dependent manner
- EC90 (SARS-CoV-2 USA-WA1/2020 [3]; Severe acute respiratory syndrome coronavirus 2, primary human airway epithelial model, antiviral time course, preliminary data, read-out: unbound EC90): < 500 nM
- PF-00835231 Assay ([4]; HP-β-CD 0 mg/mL, order: PF-00835231, Ethanol, Buffer): 0.4 mg/mL
- PF-00835231 Assay ([4]; HP-β-CD 15 mg/mL, order: PF-00835231, Ethanol, HP-β-CD with buffer): 1.9 mg/mL
- PF-00835231 Assay ([4]; HP-β-CD 15 mg/mL, order: PF-00835231, HP-β-CD with buffer, Ethanol): 0.4 mg/mL
- decrease in chromatographic purity at 22° C. [5]: less than 0.5%
- time dependent inhibition of CYP3A4/5 (CYP3A4/5): weak signal
- solubility at 48 h (physchem [6]): > 45000 µg/mL
- solubility (physchem [7]): 1700 µg/mL (≈ 3.6 mM)
- solubility at 48 h (physchem [7]): 1900 µg/mL (≈ 4.02 mM)
- solubility at 72 h (physchem [7]): 2000 µg/mL (≈ 4.23 mM)
- solubility (physchem [8]): ≥ 200000 µg/mL
- CC50 (in vitro): > 10000 nM
- CC50 [9]: > 100000 nM
- CC50 (MRC-5 cells): > 100 µM
- half-life [10]: < 1.5 h
- Assay - 0 days [11, 14]: 2.3 mg/mL and 2.2 mg/mL
- Assay - 3 days [11, 14]: 2.3 mg/mL and 2.2 mg/mL
- Total Impurities - 0 days [11, 14]: 1.23 % peak area and 1.20 % peak area
- Total Impurities - 3 days [11, 14]: 1.38 % peak area and 1.37 % peak area
- Assay - 0 days [11, 15]: 0.6 mg/mL
- Assay - 3 days [11, 15]: 0.6 mg/mL
- Total Impurities - 0 days [11, 15]: 1.20 % peak area
- Total Impurities - 3 days [11, 15]: 1.33 % peak area
- Assay - 0 days ([11]; No dilution): 5.8 mg/mL and 5.6 mg/mL
- Assay - 3 days ([11]; No dilution): 5.8 mg/mL and 5.7 mg/mL
- Total Impurities - 0 days ([11]; No dilution): 1.25 % peak area
- Total Impurities - 3 days ([11]; No dilution): 1.44 % peak area and 1.48 % peak area
- solubility at 48 h [12]: 100 µg/mL (≈ 0.212 mM)
- PF-00835231 Assay ([13]; HPMC 1 mg/mL): 0.4 mg/mL
- PF-00835231 Assay ([13]; PEG400 […]): 0.4 mg/mL
- PF-00835231 Assay ([13]; PEG3350 […]): 0.4 mg/mL
- PF-00835231 Assay ([13]; PVP […]): 0.4 mg/mL
- PF-00835231 Assay ([13]; no polymeric excipient): 0.4 mg/mL
